# Experimental data reported in ChEMBL document CHEMBL4342421, “Current scenario of tetrazole hybrids for antibacterial activity” (Eur J Med Chem, 2019).
# Tested on: Escherichia coli
# Assay: Antimicrobial activity against Escherichia coli
# Format: functional
# Details: not given
row,MIC [µg/mL],SMILES
1,50 to 100,Oc1ccc(-c2nnnn2-c2nc3ccccc3s2)cc1O
2,25 to 50,O=C(O)c1cn(C2CC2)c2cc(N3CCNCC3)c(F)cc2c1=O [CIPROFLOXACIN]
3,50 to 100,COc1cc(-c2nnnn2-c2nc3ccccc3s2)cc(OC)c1OC

# Tested on: Pseudomonas aeruginosa
# Assay: Antimicrobial activity against Pseudomonas aeruginosa
# Format: functional
# Details: not given
row,MIC [µg/mL],SMILES
1,50 to 100,Oc1ccc(-c2nnnn2-c2nc3ccccc3s2)cc1O
2,25 to 50,O=C(O)c1cn(C2CC2)c2cc(N3CCNCC3)c(F)cc2c1=O [CIPROFLOXACIN]
3,50 to 100,COc1cc(-c2nnnn2-c2nc3ccccc3s2)cc(OC)c1OC

# Tested on: Staphylococcus aureus
# Assay: Antimicrobial activity against Staphylococcus aureus
# Format: functional
# Details: not given
row,MIC [µg/mL],SMILES
1,50 to 100,Oc1ccc(-c2nnnn2-c2nc3ccccc3s2)cc1O
2,25 to 50,O=C(O)c1cn(C2CC2)c2cc(N3CCNCC3)c(F)cc2c1=O [CIPROFLOXACIN]
3,50 to 100,COc1cc(-c2nnnn2-c2nc3ccccc3s2)cc(OC)c1OC

# Tested on: Bacillus cereus
# Assay: Antimicrobial activity against Bacillus cereus
# Format: functional
# Details: not given
row,MIC [µg/mL],SMILES
1,50 to 100,Oc1ccc(-c2nnnn2-c2nc3ccccc3s2)cc1O
2,50 to 100,COc1cc(-c2nnnn2-c2nc3ccccc3s2)cc(OC)c1OC

# Tested on: Salmonella typhimurium
# Assay: Antimicrobial activity against Salmonella typhimurium
# Format: functional, Salmonella enterica subsp. enterica serovar Typhimurium
# Details: Salmonella enterica
row,MIC [µg/mL],SMILES
1,25 to 50,O=C(O)c1cn(C2CC2)c2cc(N3CCNCC3)c(F)cc2c1=O [CIPROFLOXACIN]

# Tested on: Candida albicans
# Assay: Antifungal activity against Candida albicans
# Format: functional
# Details: not given
row,MIC [µg/mL],SMILES
1,50 to 100,Oc1ccc(-c2nnnn2-c2nc3ccccc3s2)cc1O
2,25 to 50,O=C(O)c1cn(C2CC2)c2cc(N3CCNCC3)c(F)cc2c1=O [CIPROFLOXACIN]
3,50 to 100,COc1cc(-c2nnnn2-c2nc3ccccc3s2)cc(OC)c1OC

# Tested on: Staphylococcus aureus
# Assay: Antimicrobial activity against Staphylococcus aureus assessed as zone of inhibition at 250 ug/ml
# Format: functional
# Details: read-out: IZ
row,SMILES,zone of inhibition at 250 µg/mL [mm]
1,Oc1ccc(-c2nnnn2-c2nc3ccccc3s2)cc1O,16 to 26
2,COc1cc(-c2nnnn2-c2nc3ccccc3s2)cc(OC)c1OC,16 to 26

# Tested on: Bacillus cereus
# Assay: Antimicrobial activity against Bacillus cereus assessed as zone of inhibition at 250 ug/ml
# Format: functional
# Details: read-out: IZ
row,SMILES,zone of inhibition at 250 µg/mL [mm]
1,Oc1ccc(-c2nnnn2-c2nc3ccccc3s2)cc1O,16 to 26
2,COc1cc(-c2nnnn2-c2nc3ccccc3s2)cc(OC)c1OC,16 to 26

# Tested on: Escherichia coli
# Assay: Antimicrobial activity against Escherichia coli assessed as zone of inhibition at 250 ug/ml
# Format: functional
# Details: read-out: IZ
row,SMILES,zone of inhibition at 250 µg/mL [mm]
1,Oc1ccc(-c2nnnn2-c2nc3ccccc3s2)cc1O,16 to 26
2,COc1cc(-c2nnnn2-c2nc3ccccc3s2)cc(OC)c1OC,16 to 26

# Tested on: Pseudomonas aeruginosa
# Assay: Antimicrobial activity against Pseudomonas aeruginosa assessed as zone of inhibition at 250 ug/ml
# Format: functional
# Details: read-out: IZ
row,SMILES,zone of inhibition at 250 µg/mL [mm]
1,Oc1ccc(-c2nnnn2-c2nc3ccccc3s2)cc1O,16 to 26
2,COc1cc(-c2nnnn2-c2nc3ccccc3s2)cc(OC)c1OC,16 to 26

# Tested on: Candida albicans
# Assay: Antifungal activity against Candida albicans assessed as zone of inhibition at 250 ug/ml
# Format: functional
# Details: read-out: IZ
row,SMILES,zone of inhibition at 250 µg/mL [mm]
1,Oc1ccc(-c2nnnn2-c2nc3ccccc3s2)cc1O,16 to 26
2,COc1cc(-c2nnnn2-c2nc3ccccc3s2)cc(OC)c1OC,16 to 26

# Tested on: Aspergillus niger
# Assay: Antifungal activity against Aspergillus niger assessed as zone of inhibition at 250 ug/ml
# Format: functional
# Details: read-out: IZ
row,SMILES,zone of inhibition at 250 µg/mL [mm]
1,Oc1ccc(-c2nnnn2-c2nc3ccccc3s2)cc1O,16 to 26
2,COc1cc(-c2nnnn2-c2nc3ccccc3s2)cc(OC)c1OC,16 to 26

# Tested on: Escherichia coli
# Assay: Antimicrobial activity against Escherichia coli assessed as zone of inhibition at 50 ug/ml
# Format: functional
# Details: read-out: IZ
row,SMILES,zone of inhibition at 50 µg/mL [mm]
1,O=C(/C=C/c1ccccc1[N+](=O)[O-])n1nnnc1-c1ccccc1,8 to 15
2,COc1ccc(/C=C/C(=O)n2nnnc2-c2ccccc2)cc1,8 to 15
3,Cc1ccc(/C=C/C(=O)n2nnnc2-c2ccccc2)cc1,8 to 15
4,O=C(/C=C/c1ccc(Br)cc1)n1nnnc1-c1ccccc1,8 to 15
5,O=C(/C=C/c1ccccc1Cl)n1nnnc1-c1ccccc1,8 to 15
6,O=C(/C=C/c1ccc([N+](=O)[O-])cc1)n1nnnc1-c1ccccc1,8 to 15
7,O=C(O)c1cn(C2CC2)c2cc(N3CCNCC3)c(F)cc2c1=O [CIPROFLOXACIN],19 to 20

# Tested on: Staphylococcus aureus
# Assay: Antimicrobial activity against Staphylococcus aureus assessed as zone of inhibition at 50 ug/ml
# Format: functional
# Details: read-out: IZ
row,SMILES,zone of inhibition at 50 µg/mL [mm]
1,O=C(/C=C/c1ccccc1[N+](=O)[O-])n1nnnc1-c1ccccc1,8 to 15
2,COc1ccc(/C=C/C(=O)n2nnnc2-c2ccccc2)cc1,8 to 15
3,Cc1ccc(/C=C/C(=O)n2nnnc2-c2ccccc2)cc1,8 to 15
4,O=C(/C=C/c1ccc(Br)cc1)n1nnnc1-c1ccccc1,8 to 15
5,O=C(/C=C/c1ccccc1Cl)n1nnnc1-c1ccccc1,8 to 15
6,O=C(/C=C/c1ccc([N+](=O)[O-])cc1)n1nnnc1-c1ccccc1,8 to 15
7,O=C(O)c1cn(C2CC2)c2cc(N3CCNCC3)c(F)cc2c1=O [CIPROFLOXACIN],19 to 20

# Tested on: Aspergillus niger
# Assay: Antifungal activity against Aspergillus niger assessed as zone of inhibition at 50 ug/ml
# Format: functional
# Details: read-out: IZ
row,SMILES,zone of inhibition at 50 µg/mL [mm]
1,O=C(/C=C/c1ccccc1[N+](=O)[O-])n1nnnc1-c1ccccc1,8 to 15
2,COc1ccc(/C=C/C(=O)n2nnnc2-c2ccccc2)cc1,8 to 15
3,Cc1ccc(/C=C/C(=O)n2nnnc2-c2ccccc2)cc1,8 to 15
4,O=C(/C=C/c1ccc(Br)cc1)n1nnnc1-c1ccccc1,8 to 15
5,O=C(/C=C/c1ccccc1Cl)n1nnnc1-c1ccccc1,8 to 15
6,O=C(/C=C/c1ccc([N+](=O)[O-])cc1)n1nnnc1-c1ccccc1,8 to 15
7,O=C(O)c1cn(C2CC2)c2cc(N3CCNCC3)c(F)cc2c1=O [CIPROFLOXACIN],19 to 20

# Tested on: Candida albicans
# Assay: Antifungal activity against Candida albicans assessed as zone of inhibition at 50 ug/ml
# Format: functional
# Details: read-out: IZ
row,SMILES,zone of inhibition at 50 µg/mL [mm]
1,O=C(/C=C/c1ccccc1[N+](=O)[O-])n1nnnc1-c1ccccc1,8 to 15
2,COc1ccc(/C=C/C(=O)n2nnnc2-c2ccccc2)cc1,8 to 15
3,Cc1ccc(/C=C/C(=O)n2nnnc2-c2ccccc2)cc1,8 to 15
4,O=C(/C=C/c1ccc(Br)cc1)n1nnnc1-c1ccccc1,8 to 15
5,O=C(/C=C/c1ccccc1Cl)n1nnnc1-c1ccccc1,8 to 15
6,O=C(/C=C/c1ccc([N+](=O)[O-])cc1)n1nnnc1-c1ccccc1,8 to 15
7,O=C(O)c1cn(C2CC2)c2cc(N3CCNCC3)c(F)cc2c1=O [CIPROFLOXACIN],19 to 20

# Tested on: Aspergillus niger
# Assay: Antifungal activity against Aspergillus niger
# Format: functional
# Details: not given
row,MIC [µg/mL],SMILES
1,50 to 100,Oc1ccc(-c2nnnn2-c2nc3ccccc3s2)cc1O
2,25 to 50,O=C(O)c1cn(C2CC2)c2cc(N3CCNCC3)c(F)cc2c1=O [CIPROFLOXACIN]
3,50 to 100,COc1cc(-c2nnnn2-c2nc3ccccc3s2)cc(OC)c1OC

# Tested on: Priestia megaterium
# Assay: Antimicrobial activity against Bacillus megaterium
# Format: functional
# Details: not given
row,MIC [µg/mL],SMILES
1,25 to 50,O=C(O)c1cn(C2CC2)c2cc(N3CCNCC3)c(F)cc2c1=O [CIPROFLOXACIN]

# Tested on: Micrococcus luteus
# Assay: Antibacterial activity against Micrococcus luteus
# Format: functional
# Details: not given
row,MIC [µg/mL],SMILES
1,25 to 50,O=C(O)c1cn(C2CC2)c2cc(N3CCNCC3)c(F)cc2c1=O [CIPROFLOXACIN]
